In the supplement of paper PMC10307832:

How the values were obtained:
Assay in all cases: relative viability (nuclei count vs DMSO), 5 days (fraction); higher = more cells survive
Obatoclax + AZD7762 = compound: COC1=CC(c2cc3ccccc3[nH]2)=N/C1=C\c1[nH]c(C)cc1C [Obatoclax] + NC(=O)Nc1cc(-c2cccc(F)c2)sc1C(=O)N[C@H]1CCCNC1 [AZD7762] (partner 0.2 µM)
Procedure, shortened: (§1)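 For relative viability, nuclei counts in treated wells were divided by those in vehicle wells. Lung cancer cell lines had been pin-tool dosed in 1536-well plates the day after seeding and cultured for 5 days, then fixed and stained in one step (final 0.05% Triton X-100, 1% formaldehyde, 1 ug/ml Hoechst) and imaged at 4×. Doses were one drug alone or a fixed anchor-drug dose plus five library-drug doses (not always all listed) in √10 steps, and values are duplicate-plate medians.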

[1] = compound: CC1=CC(=NN1)NC2=CC(=NC(=N2)/C=C/C3=CC=CC=C3)N4CCN(CC4)C + Cc1cc(Nc2cc(N3CCN(C)CC3)nc(Sc3ccc(NC(=O)C4CC4)cc3)n2)n[nH]1 [Tozasertib] (partner 0.1 µM)
Procedure, shortened: as §1

[2] = compound: CC1=CC(=NN1)NC2=CC(=NC(=N2)/C=C/C3=CC=CC=C3)N4CCN(CC4)C + C[C@@H](Oc1cc(-c2cnn(C3CCNCC3)c2)cnc1N)c1c(Cl)ccc(F)c1Cl [Crizotinib] (partner 1 µM)
Procedure, shortened: as §1

Cell Line	relative viability (Obatoclax + AZD7762; first compound 0.01 µM)	relative viability (Obatoclax + AZD7762; first compound 0.03162 µM)	relative viability (Obatoclax + AZD7762; first compound 0.1 µM)	relative viability (Obatoclax + AZD7762; first compound 0.3162 µM)	relative viability (Obatoclax + AZD7762; first compound 1 µM)	relative viability ([1]; first compound 0.08 µM)	relative viability ([1]; first compound 0.253 µM)	relative viability ([1]; first compound 0.8 µM)	relative viability ([1]; first compound 2.53 µM)	relative viability ([1]; first compound 8 µM)	relative viability ([2]; first compound 0.08 µM)	relative viability ([2]; first compound 0.253 µM)	relative viability ([2]; first compound 0.8 µM)	relative viability ([2]; first compound 2.53 µM)	relative viability ([2]; first compound 8 µM)
BEN	0.762	0.607	0.544	0.734	0.704	0.492	0.533	0.451	0.364	0.38	0.881	1.09	0.804	0.675	0.167
NCI-H2347	0.687	0.836	0.777	0.695	0.869	0.501	0.565	0.518	0.461	0.257	0.855	0.784	0.545	0.573	0.262
LOU-NH91	0.703	0.717	0.646	0.667	0.539	0.713	0.719	0.707	0.482	0.308	0.775	0.757	0.741	0.706	0.403
NCI-H358	0.519	0.438	0.543	0.307	0.224	0.103	0.103	0.0892	0.089	0.0711	0.607	0.478	0.264	0.14	0.11
HCC-366	0.289	0.218	0.184	0.227	0.243	0.0833	0.0907	0.0487	0.032	0.0245	0.6	0.628	0.357	0.0171	0.01
NCI-H2405	0.726	0.857		0.924	0.8	0.751	0.72	0.674	0.421	0.185	0.868	0.818	0.803	0.694	0.202
201T	0.608	0.601	0.579	0.614	0.702	0.973	0.916	0.746	0.388	0.25	1.01	1.07	0.965	0.982	0.786
CAL-12T	0.616	0.554	0.531	0.518	0.294	0.25	0.303	0.251	0.172	0.143	0.825	0.54	0.291	0.11	0.0934
HCC-44	0.95	1.03	1.14	1.01	0.978	0.83	1.05	0.67	0.268	0.146	0.756	0.837	0.787	0.386	0.0992
NCI-H1944	0.481	0.695	0.492	0.551	0.494	0.266	0.284	0.223	0.184	0.136	1.04	1.24	1.11	0.62	0.275
NCI-H2087	1.19	1.37	1.15	1.21	0.9	0.229	0.238	0.195	0.162	0.11	0.968	0.58	0.769	0.567	0.179
LCLC-97TM1	0.218		0.203	0.229	0.206	0.235	0.132	0.23	0.145	0.126	0.381	0.352	0.292	0.152	0.078
NCI-H1993	0.769	0.789	0.898	0.818	0.536	0.553	0.524	0.577	0.485	0.52	0.883		0.739	0.551	0.526
NCI-H1437	1.12	1.16	1.03	1.08	0.895	0.422	0.462	0.424	0.344	0.201	0.773	0.922	0.898	0.999	0.225
LC-2-ad	0.857	0.888	0.777	0.836	0.438	0.45	0.409	0.358	0.224	0.204	0.475	0.469	0.365	0.303	0.186
HARA	0.379	0.237	0.397	0.173	0.244	0.111	0.108	0.11	0.0787	0.0585	1.05	1.01	0.932	0.138	0.1
NCI-H1975	0.744	0.654		0.728	0.756	0.62	0.729	0.416	0.127	0.0865	0.91	0.958	0.548	0.186	0.147
NCI-H2085	0.932	0.991	0.952	0.621	0.299	0.823	0.749	0.629	0.424	0.433	0.859	0.831	0.753	0.343	0.266
NCI-H3122	1.03	0.962	0.971	0.949	1	0.373	0.408	0.408	0.33	0.231	0.285	0.318	0.253	0.268	0.168
NCI-H1651	0.488	0.4	0.421	0.431	0.439	0.678	0.658	0.661	0.296	0.177	0.839	0.911	0.808	0.738	0.482
NCI-H441	1.33	1.28	1.16	0.941	1.08	0.642	0.592	0.599	0.287	0.189	0.689	0.794	0.457	0.254	0.15
ABC-1	0.639	0.749		0.817	0.839	0.191	0.164	0.191	0.207	0.182	0.866	1.25	0.562	0.182	0.169
